Data on three compounds can be found in patent US20130065825A1, “Compositions and Methods for Delaying Senescence or Cell Death in Neurons” (NEUROTEZ, INC., priority 2011, published 2013).

In one experiment the test system is phosphorylated tau. As to the kind of experiment: Tau phosphorylation in RA-SY5Y cells by immunoblot (pTau181) and ELISA (pTau231, pTau396). In kind it is cell-based, human. Conditions: 6 h; for effect of co-treatment on Leptin's reduction of phospho-tau: Leptin 500 ng/mL + nicotinamide 5 mM or compound C 20 μM, phospho-tau returned to control levels; for Tau396 phosphorylation compared to control: nicotinamide 5 mM or compound C 20 μM, independent of Leptin treatment, ELISA. As for the experimental part:
(§1) For neuronal differentiation, 1×10^6 SY5Y or IMR-32 cells were grown in neruonal induction medium (NIM), which is consisted of MEM containing 2% FBS supplemented with 10 μM retinoic acid (RA). Cells were incubated in NIM for 6 days, and switched to serum-free NIM prior to treatment and harvesting on day 7.
(§2) Neuronal cells were treated with Leptin (500 ng/ml) in the presence or absence of nicotinamide (5 mM) or compound C (20 μM) for 6 or 18 h, depending on readout, and then harvested by scraping. Preparation of lysates and immunoblotting were performed as described.
(§3) Aβ(1-40) levels in cell culture media were determined using the Human β-Amyloid 1-40 ELISA kit (Invitrogen; Carlsbad, Calif.), and phospho- and total tau levels in cell culture lysates were determined using the Human Tau pSer^396, pThr^231 and Total Tau ELISA kits (Invitrogen) according to manufacturer's specific instructions.
The Invitrogen Human Tau (Total) kit is a solid phase sandwich Enzyme Linked-Immuno-Sorbent Assay (ELISA). Samples, including standards of known human Tau content, control specimens, and unknowns, are pipetted into the wells of microtiter strips, which are coated with a monoclonal antibody specific for human Tau. During the first incubation, the human Tau antigen binds to the immobilized (capture) antibody on one site. After washing, a rabbit polyclonal antibody specific for human Tau is added. During the second incubation, this antibody binds to the immobilized human Tau captured during the first incubation. After removal of excess second antibody, a horseradish peroxidase (HRP)-labeled anti-rabbit antibody is added. This binds to the rabbit polyclonal antibody to complete the four-member sandwich. After a third incubation and washing to remove all the excess anti-rabbit HRP, a substrate solution is added, which is acted upon by the bound enzyme to produce color. The intensity of this colored product is directly proportional to the concentration of human Tau present in the original specimen.
For orientation: Immunoblotting shows a protein as a band on a membrane.

The subject of experiment [1] is AMP-Activated Protein Kinase (AMPK). As to the kind of experiment: AMPK activity assay (CycLex AMPK Kinase Assay Kit) in lysates of RA-SY5Y cells. The class given is cell-based, human. The procedure: as §1, §2
AMP-Activated Protein Kinase (AMPK) activity in cell lysates was determined using the CycLex AMPK Kinase Assay Kit (MBL International; Woburn, Mass.), as described previously. Briefly, the term “relative AMPK activity” or “AMPK activity,” is defined as Compound C-sensitive protein kinase activity in cell lysates. Titration of various Compound C doses identified 10 μM as the dose in which there was no further reduction in kinase activity upon increasing concentration (data not shown). Neuronal cell lysates were incubated in the presence or absence of 10 μM Compound C, and protein kinase activity determined by measuring phosphorylation of the Insulin Receptor Substrate-1 (IRS-1) through immunoassay and conversion of a chromogenic substrate at an absorbance of 450 nm (A450). Normalized AMPK activity in the lysates was defined as: […]

For the next experiment, the system named is Aβ(1-40). The experiment is described as follows: Aβ(1-40) in culture media of SY5Y-APP751 cells by ELISA. In kind it is cell-based, human. To be noted: 18 h; for effect of co-treatment on Leptin's reduction of Aβ(1-40): Leptin 500 ng/mL + nicotinamide 5 mM or compound C 20 μM, Aβ(1-40) returned to vehicle levels. The procedure:
To generate SY5Y stably over-expressing amyloid precursor protein (APP), cells were transfected with a mammalian expression vector encoding the 751 amino acid isoform of human APP (APP751-Accession #NM_201413) (Origene Technologies; Rockville, Md.) using the FuGENE HD transfection reagent, according to manufacturer's specific instructions (Promega; Madison, Wis.). Briefly, cells were transiently transfected with APP751 or vehicle for 48 h and then switched into selection medium containing a concentration range of the antibiotic G418 (100-600 μg/mL) to determine the optimal dose for stable selection. Selection media was changed every 3 days to remove non-viable cells. After 3 weeks, 200 μg/mL G418 yielded distinct colonies while all vehicle-transfected cells were non-viable. Cells were maintained in 10% FBS media containing 200 μg/mL G418 for expansion.
as §2, §3
The Human β-Amyloid 1-40 ELISA kit was used for the quantitative determination of human Aβ40 in samples (e.g., tissue culture medium, tissue homogenate, cerebrospinal fluid (CSF), and the like). The assay recognizes both natural and synthetic forms of human Aβ40. The anti-human Aβ40 antibody is capable of selectively detecting Aβ40 and not Aβ42/Aβ43. The Human β-Amyloid 1-40 ELISA kit is a solid phase sandwich Enzyme Linked-Immuno-Sorbent Assay (ELISA). […] This COOH-terminal sequence is created upon cleavage of the analyzed precursor. Bound rabbit antibody then is detected by the use of a horseradish peroxidase (HRP)-labeled anti-rabbit antibody. […]
On the technique in general: In an ELISA, binding on a coated surface is turned into a signal by an enzyme label.

In experiment [2] the test system is Total Sirtuins. To be noted: identified by the manufacturer of the kit; cited from earlier work.
Experiment [3] has as its system Total Sirtuins. As to the kind of experiment: SIRT activity assay (Fluor-de-Lys HDAC Fluorimetric Cellular Activity Assay Kit) in lysates of RA-SY5Y cells. In kind it is cell-based, human. To be noted: 6 h. As for the experimental part:
as §1, §2
Total Sirtuins activity in cell lysates was determined using the Fluro-de-Lys® HDAC Fluorimetric Cellular Activity Assay Kit (Enzo Life Sciences; Plymouth Meeting, Pa.), according to manufacturer's specified guidelines. “SIRT activity” in this assay is defined as nicotinamide-sensitive deacetylase (class III HDAC) activity in cell lysates. […] Neuronal cell lysates were incubated in the presence or absence of 5 mM nicotinamide, and SIRT activity determined by adding the Flour-de-Lys® Substrate for deacetylation followed by exposure to the Fluor-de-Lys® Developer to generate a fluorescent signal for detection using a fluorimeter (Ex. 350-380 nm; Em. 440-460 nm). Normalized SIRT activity in the lysates was measured in units of fluorescence intensity (Fi) and defined as: […]

With `c1cc(-c2cnn3cc(-c4ccc(OCCN5CCCCC5)cc4)cnc23)ccn1` [compound C, 6-[4-(2-Piperidin-1-yl-ethoxy)-phenyl]-3-pyridin-4-yl-pyrrazolo[1,5,-α]pyrimidine], in the experiment on phosphorylated tau, the “effect of co-treatment on Leptin's reduction of phospho-tau” value was “negated these effects” and the “Tau396 phosphorylation compared to control” value is reported as “significantly (p<0.05) increased”. For the same compound, the “AMPK activity on co-treatment with Leptin” value in experiment [1] (RA-SY5Y cells, Leptin 500 ng/mL + compound C 20 μM, 6 h, to levels similar to non-treated control) is on record as “significantly (p<0.05) reduced AMPK activity”. Further, in experiment [1] (titration in cell lysates, data not shown), the “dose with no further reduction in kinase activity upon increasing concentration” value came out at 10 µM. The “effect of co-treatment on Leptin's reduction of Aβ(1-40)” value with Aβ(1-40) is listed as “reversed these effects”.
On to `NC(=O)c1cccnc1` [nicotinamide], for which, in the experiment with phosphorylated tau, the “effect of co-treatment on Leptin's reduction of phospho-tau” value is “negated these effects” and the “Tau396 phosphorylation compared to control” value is “significantly (p<0.05) increased”. For the same compound, the “dose with no further reduction in deacetylase activity upon increasing concentration” value with Total Sirtuins [2] was 5 mM. In addition, in the experiment on Total Sirtuins [3] (Leptin 500 ng/mL + nicotinamide 5 mM, to levels similar to non-treated control), the “SIRT activity on co-treatment with Leptin” value was “significantly (p<0.05) reduced SIRT activity”. Also, the “effect of co-treatment on Leptin's reduction of Aβ(1-40)” value in the experiment with Aβ(1-40) is “reversed these effects”.
Take “Leptin: recombinant human Leptin purchased from Sigma-Aldrich; pleiotropic hormone primarily secreted by adipocytes”: the “all examined phospho-tau species (pTau181, pTau231, pTau396)” value in the experiment with phosphorylated tau (Leptin 500 ng/mL, no SIRT or AMPK inhibition, normalized to total tau, n=3) is listed as “significant (p<0.05) reduction”. In addition, the “increase in total SIRT deacetylase activity vs cells treated without Leptin” value in the experiment with Total Sirtuins [3] (Leptin 500 ng/mL, normalized to total protein, n=3, p<0.05) is “approximately 2.5 fold”. Also, the “increase in AMPK kinase activity vs cells treated without Leptin” value in experiment [1] (RA-SY5Y cells, Leptin 500 ng/mL, 6 h, normalized to total protein, n=3, p<0.05) is “approximately 2 fold”. Moreover, in the experiment with Aβ(1-40) (Leptin 500 ng/mL, no inhibitors, normalized to total protein, n=3), the “Aβ(1-40) in culture media” value is “significant (p<0.05) reduction”.
